Consider 4 cell lines from the supplement of paper PMC10307832.

Common to all, as to test: relative viability (nuclei count vs DMSO), 5 days (fraction); higher = more cells survive
Compound in the assay “4EGI-1 + Tozasertib”: O=C(O)C(Cc1ccccc1[N+](=O)[O-])=NNc1nc(-c2ccc(Cl)c(Cl)c2)cs1 (mixture of isomers) [4EGI-1] + Cc1cc(Nc2cc(N3CCN(C)CC3)nc(Sc3ccc(NC(=O)C4CC4)cc3)n2)n[nH]1 [Tozasertib] (partner 0.1 µM)
In a few lines:
(§1)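 Relative viability divides the nuclei count in treated wells by that in vehicle wells. Lung cancer cell lines were seeded in 1536-well plates, dosed by pin tool the next day, and fixed and stained after 5 days in one step with final 0.05% Triton X-100, 1% formaldehyde and 1 ug/ml Hoechst. Dosing was a single drug or a fixed anchor-drug dose plus five library-drug doses (not always all listed) in √10 steps, and values are medians of duplicate plates imaged at 4×.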

Compound in the assay “4EGI-1 + Bortezomib”: O=C(O)C(Cc1ccccc1[N+](=O)[O-])=NNc1nc(-c2ccc(Cl)c(Cl)c2)cs1 (mixture of isomers) [4EGI-1] + CC(C)C[C@H](NC(=O)[C@H](Cc1ccccc1)NC(=O)c1cnccn1)B(O)O [Bortezomib] (partner 0.002 µM)
In outline:
as §1

Compound in the assay “XMD8-85 + Dasatinib”: CN1CCN(CC1)C2=CC(=C(C=C2)NC3=NC=C4C(=N3)N(C5=CC=CC=C5C(=O)N4C)C)OC [XMD8-85] + Cc1nc(Nc2ncc(C(=O)Nc3c(C)cccc3Cl)s2)cc(N2CCN(CCO)CC2)n1 [Dasatinib] (partner 0.075 µM)
In a few lines: as §1

Compound in the assay “4EGI-1 + Pemetrexed”: O=C(O)C(Cc1ccccc1[N+](=O)[O-])=NNc1nc(-c2ccc(Cl)c(Cl)c2)cs1 (mixture of isomers) [4EGI-1] + Nc1nc2[nH]cc(CCc3ccc(C(=O)N[C@@H](CCC(=O)O)C(=O)O)cc3)c2c(=O)[nH]1 [Pemetrexed] (partner 0.2 µM)
In a few lines: as §1

LOU-NH91: the relative viability was 0.671 in the assay with 4EGI-1 + Tozasertib (first compound 0.5 µM); 0.666 with 4EGI-1 + Tozasertib (first compound 5 µM); 0.432 in the assay with 4EGI-1 + Tozasertib (first compound 15.81 µM); 0.69 with 4EGI-1 + Tozasertib (first compound 50 µM); 0.501 with 4EGI-1 + Bortezomib (first compound 0.5 µM); 0.531 in the assay with 4EGI-1 + Bortezomib (first compound 5 µM). Also, the relative viability with 4EGI-1 + Bortezomib (first compound 15.81 µM) was found to be 0.384; with 4EGI-1 + Bortezomib (first compound 50 µM), 0.426; with XMD8-85 + Dasatinib (first compound 0.08 µM), 0.553; in the assay with XMD8-85 + Dasatinib (first compound 0.253 µM) it was 0.555; with XMD8-85 + Dasatinib (first compound 0.8 µM), 0.573; with XMD8-85 + Dasatinib (first compound 2.53 µM) it was 0.571. Also, the relative viability with XMD8-85 + Dasatinib (first compound 8 µM) was found to be 0.459; with 4EGI-1 + Pemetrexed (first compound 0.5 µM) it was 0.431; with 4EGI-1 + Pemetrexed (first compound 5 µM), 0.387; with 4EGI-1 + Pemetrexed (first compound 15.81 µM) it was 0.435; in the assay with 4EGI-1 + Pemetrexed (first compound 50 µM), 0.481.
On to NCI-H1666, for which the relative viability in the assay with 4EGI-1 + Tozasertib (first compound 0.5 µM) came out at 0.61; in the assay with 4EGI-1 + Tozasertib (first compound 1.581 µM) it was 0.535; with 4EGI-1 + Tozasertib (first compound 5 µM), 0.647; with 4EGI-1 + Tozasertib (first compound 15.81 µM) it was 0.448; with 4EGI-1 + Tozasertib (first compound 50 µM) it was 0.328; in the assay with 4EGI-1 + Bortezomib (first compound 0.5 µM), 1.22. Also, the relative viability with 4EGI-1 + Bortezomib (first compound 1.581 µM) was 0.693; with 4EGI-1 + Bortezomib (first compound 5 µM), 0.862; with 4EGI-1 + Bortezomib (first compound 15.81 µM) it was 0.474; in the assay with 4EGI-1 + Bortezomib (first compound 50 µM), 0.228; with XMD8-85 + Dasatinib (first compound 0.08 µM), 0.822; with XMD8-85 + Dasatinib (first compound 0.253 µM), 0.827. In addition, the relative viability stood at 0.808 with XMD8-85 + Dasatinib (first compound 0.8 µM); 0.773 in the assay with XMD8-85 + Dasatinib (first compound 2.53 µM); 0.701 in the assay with XMD8-85 + Dasatinib (first compound 8 µM); 0.898 with 4EGI-1 + Pemetrexed (first compound 0.5 µM); 0.889 in the assay with 4EGI-1 + Pemetrexed (first compound 1.581 µM); 0.891 in the assay with 4EGI-1 + Pemetrexed (first compound 5 µM). Also, the relative viability came to 0.711 in the assay with 4EGI-1 + Pemetrexed (first compound 15.81 µM) and 0.641 with 4EGI-1 + Pemetrexed (first compound 50 µM).
With EKVX, the relative viability with 4EGI-1 + Tozasertib (first compound 0.5 µM) came out at 0.434; in the assay with 4EGI-1 + Tozasertib (first compound 1.581 µM), 0.359; with 4EGI-1 + Tozasertib (first compound 5 µM), 0.433; with 4EGI-1 + Tozasertib (first compound 15.81 µM) it was 0.368; in the assay with 4EGI-1 + Tozasertib (first compound 50 µM), 0.371; with 4EGI-1 + Bortezomib (first compound 0.5 µM) it was 1.09. For the same cell line, the relative viability came to 0.965 with 4EGI-1 + Bortezomib (first compound 1.581 µM); 1.06 in the assay with 4EGI-1 + Bortezomib (first compound 5 µM); 1.04 with 4EGI-1 + Bortezomib (first compound 15.81 µM); 1.04 with 4EGI-1 + Bortezomib (first compound 50 µM); 0.518 with XMD8-85 + Dasatinib (first compound 0.08 µM); 0.545 with XMD8-85 + Dasatinib (first compound 0.253 µM). In addition, the relative viability with XMD8-85 + Dasatinib (first compound 0.8 µM) is 0.478; with XMD8-85 + Dasatinib (first compound 2.53 µM), 0.536; with XMD8-85 + Dasatinib (first compound 8 µM) it was 0.475; in the assay with 4EGI-1 + Pemetrexed (first compound 0.5 µM), 0.418; in the assay with 4EGI-1 + Pemetrexed (first compound 5 µM), 0.407; with 4EGI-1 + Pemetrexed (first compound 15.81 µM), 0.325. The relative viability in the assay with 4EGI-1 + Pemetrexed (first compound 50 µM) is 0.368.
For HOP-62, the relative viability in the assay with 4EGI-1 + Tozasertib (first compound 0.5 µM) worked out at 0.385; with 4EGI-1 + Tozasertib (first compound 1.581 µM), 0.257; with 4EGI-1 + Tozasertib (first compound 5 µM) it was 0.403; with 4EGI-1 + Tozasertib (first compound 15.81 µM) it was 0.34; with 4EGI-1 + Tozasertib (first compound 50 µM), 0.211; with 4EGI-1 + Bortezomib (first compound 0.5 µM) it was 1.32. The relative viability with 4EGI-1 + Bortezomib (first compound 5 µM) amounted to 1.03; in the assay with 4EGI-1 + Bortezomib (first compound 15.81 µM), 1.06; with 4EGI-1 + Bortezomib (first compound 50 µM), 0.45; in the assay with XMD8-85 + Dasatinib (first compound 0.08 µM), 0.644; with XMD8-85 + Dasatinib (first compound 0.253 µM), 0.594; with XMD8-85 + Dasatinib (first compound 0.8 µM), 0.661. Besides, the relative viability in the assay with XMD8-85 + Dasatinib (first compound 8 µM) stood at 0.433; with 4EGI-1 + Pemetrexed (first compound 0.5 µM), 0.342; with 4EGI-1 + Pemetrexed (first compound 1.581 µM) it was 0.389; in the assay with 4EGI-1 + Pemetrexed (first compound 5 µM) it was 0.362; with 4EGI-1 + Pemetrexed (first compound 15.81 µM), 0.311; with 4EGI-1 + Pemetrexed (first compound 50 µM), 0.318.
